# How the values were obtained:
# opiate receptor sites = test: transmurally stimulated guinea pig ileum preparation (Kosterlitz and Watt), agonist activity compared with Met-enkephaline; assay type: cell-based; settings: isolated guinea pig ileum twitch response, 0.1 Hz stimulation; dose response curve compared with Met-enkephaline
# Text: Thus for example they have affinity for opiate receptor sites and as such may be useful as anagesics, narcotic antagonists or anti-diarrhoeal agents. The test used for the detection of their agonist activity at opiate receptor sites is that of employing the transmurally stimulated guinea pig ileum preparation described in Kosterlitz H. W., and Watt A. J., Brit. J. Pharmacol, and Chemotherapy 33, […] (1968).
# In the above mentioned test method of Kosterlitz and Watt male or female guinea pigs (Duncan Hartley strain) are killed by a blow on the head and a portion of the ileum removed and set up in an isolated organ bath of 50 ml volume. A `twitch` response is produced by low frequency (0.1 Hz) stimulation with 0.5 msec rectilinear pulses. The response is depressed by a large number of different pharmacologically active agents (local anaesthetics, smooth muscle depressants, presynaptic α-receptor stimulants, and narcotic agonists).
# A test compound is dissolved in distilled water to produce a stock solution of concentration 1 mg/ml. Serial dilutions are carried out using Krebs solution to product concentrations of 10 ug, 1 ug and 0.1 ug/ml. The compound is tested by adding between 0.1-0.3 ml of the solutions to the organ bath. A dose response curve is then drawn and compared with that for Met-enkephaline.
# [1] = tested on: phenylquinone induced writhing; test: mouse phenylquinone induced writhing test (Hendershot and Forsaith); assay type: in vivo; settings: administered i.v.
# Method: The compounds were also evaluated in the mouse phenylquinone induced writhing test of Hendershot L. C. and Forsaith J., J. Pharm. Exp. Therap.
Structure (SMILES),activity relative to Met-enkephaline (opiate receptor sites),ED50 [1] [µg/kg]
"CN[C@@H](Cc1ccc(O)cc1)C(=O)N[C@H](C)C(=O)NCC(=O)N(C)[C@@H](Cc1ccccc1)C(=O)NCCC[S+](C)[O-].Cl (stereo partly drawn) [Me-Tyr-D-Ala-Gly-MePhe-NH(CH2)3 SOMe, N-Methyl-L-tyrosyl-D-alanyl-glycyl-N-methyl-L-phenylalanine-3-methylsulphinylpropylamide hydrochloride]",approximately fifteen,4
"C[C@@H](NC(=O)[C@@H](N)Cc1ccc(O)cc1)C(=O)NCC(=O)N(C)[C@@H](Cc1ccccc1)C(=O)NCCC[S+](C)[O-].Cl (stereo partly drawn) [H-Tyr-D-Ala-Gly-MePhe-NH(CH2)3 SOMe, L-Tyrosyl-D-alanyl-glycyl-N-methyl-L-phenylalanine-3-methylsulphinylpropylamide hydrochloride]",approximately eleven,4.5

# Source: US4199568A, “Tetrapeptide amides” (Reckitt & Colman Products Limited, priority 1977, dated 1980)
